These results are taken from PMC3578011 (Journal of neurochemistry, 2013).

Entries after “also recorded” stand apart in the source; their conditions may differ.

The target in data set [1] is T1, CB1 (Homo sapiens, UniProt P21554). As to the kind of experiment: Radioligand binding assay, cooperativity with [3H]SR141716A. Conditions: for effect on [3H]SR141716A binding: in the concentration range tested.
Data set [2] addresses T1, CB1. Conditions: for time of maximal ERK1/2 phosphorylation: 0.5 µM CP55,940 or 3.2 µM ICAM-b.
A short description of data set [3]: Solubility in organic solvents. The format is physicochemical. Conditions: except tetrahydrofuran (THF).
Data set [4] addresses T1, CB1. In kind it is binding. As to conditions: in the presence of ICAM-b.
A further data set has as its target CB1 wild-type receptor (Homo sapiens, UniProt P21554). The data set can be described thus: [35S]GTPγS binding assay. The format is biochemical. (In general: GTPγS resists hydrolysis and so accumulates on activated G proteins.)
Data set [5] addresses T1, CB1. The data set can be described thus: Radioligand binding assay, cooperativity with [3H]CP55,940. Conditions: for cooperativity factor (α): from [3H]CP55,940 binding curves, membranes of HEK293 cells expressing CB1.

T1 sequence (P21554 whole entry): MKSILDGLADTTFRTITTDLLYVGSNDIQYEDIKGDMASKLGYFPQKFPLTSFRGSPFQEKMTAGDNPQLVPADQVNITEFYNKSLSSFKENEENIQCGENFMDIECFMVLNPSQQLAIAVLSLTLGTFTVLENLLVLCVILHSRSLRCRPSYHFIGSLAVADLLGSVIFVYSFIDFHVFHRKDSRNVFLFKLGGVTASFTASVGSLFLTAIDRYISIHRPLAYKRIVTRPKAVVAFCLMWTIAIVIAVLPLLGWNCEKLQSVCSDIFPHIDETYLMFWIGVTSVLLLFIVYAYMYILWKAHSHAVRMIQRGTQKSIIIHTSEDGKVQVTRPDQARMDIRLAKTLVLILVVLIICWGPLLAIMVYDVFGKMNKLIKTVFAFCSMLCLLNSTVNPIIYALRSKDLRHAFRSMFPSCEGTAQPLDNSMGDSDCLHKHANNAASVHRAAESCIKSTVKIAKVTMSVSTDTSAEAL
CB1 wild-type receptor, sequence (P21554 whole entry): as above

Turning to `CCCCCc1c(C(=O)NCCc2ccc(N3CCCCC3)cc2)[nH]c2ccc(Cl)cc12` [ICAM-b, 5-chloro-3-pentyl-N-(4-(piperidin-1-yl)phenethyl)-1H-indole-2-carboxamide], the “cooperativity factor (α)” value at CB1 [1] ([3H]SR141716A as tracer, membranes of HEK293 cells expressing CB1) is given as 0.11; at CB1 [5], 17.6. In addition, the “effect on [3H]SR141716A binding” value at CB1 [1] is recorded as “substantial decrease”. Also, the “time of maximal ERK1/2 phosphorylation” value on CB1 [2] (HEK293 cells expressing CB1) was 5 min. The “transient ERK1/2 phosphorylation compared with CP55,940 alone” value on CB1 [2] (ICAM-b alone, control siRNA, HEK293 cells expressing CB1) is given as “larger increase”. The “effect of β-arrestin 2 siRNA on patterns of ERK1/2 phosphorylation” value on CB1 [2] (compared to control siRNA transfection) was “did not alter”. The “solubility in common organic solvents” value in data set [3] was “poor”. Besides, the “Bmax changes for CP55,940 and SR141716A” value at CB1 [4] is listed as “Negligible”. In addition, the “inhibition of CP55,940-induced [35S]GTPγS binding” value at CB1 wild-type receptor (3.2 µM ICAM-b) is reported as “complete inhibition”. For the same compound, the “[35S]GTPγS binding level” value on CB1 wild-type receptor (3.2 µM ICAM-b, basal level 50.1 fmol/mg) is listed as 42.1 fmol/mg. For the same compound, the “Emax of CP55,940-induced [35S]GTPγS binding” value on CB1 wild-type receptor (in the presence of 0.32 µM ICAM-b) is recorded as 78.7 fmol/mg; on CB1 wild-type receptor (in the presence of 1 µM ICAM-b), 59.3 fmol/mg.
As for `CCc1c(C(=O)NCCc2ccc(N3CCCCC3)cc2)n(C)c2ccc(Cl)cc12` [ICAM-a, 5-chloro-3-ethyl-1-methyl-N-(4-(piperidin-1-yl)phenethyl)-1H-indole-2-carboxamide], on CB1 [1], the “effect on [3H]SR141716A binding” value is given as “little effect; also recorded: no effect”. Also, the “solubility in common organic solvents” value in data set [3] is reported as “poor”. Further, on CB1 [5], the Kb amounted to 5.78 µM and the “cooperativity factor (α)” value worked out at 11.9.
`CCCCCCC(C)(C)c1ccc([C@@H]2C[C@H](O)CC[C@H]2CCCO)c(O)c1` [CP55,940, (1R,3R,4R)-3-[2-hydroxy-4-(1,1-dimethylheptyl)-phenyl]-4-(3-hydroxypropyl)cyclohexan-1-ol, reference compound]: the “time of maximal ERK1/2 phosphorylation” value on CB1 [2] (HEK293 cells expressing CB1) stood at 5 min. In addition, the “Emax of CP55,940-induced [35S]GTPγS binding” value at CB1 wild-type receptor (in the absence of ICAM-b) was 98.9 fmol/mg.
